According to patent US8829029B2, “Dual modulators of 5HT2A and D3 receptors” (Hoffmann-La Roche Inc., priority 2008, dated 2014):

Experiments:
[1] = molecular target: human 5-HT2A serotonin receptor (Homo sapiens (Human), UniProt P28223); assay: Radioligand binding ([3H]-ketanserin) to cloned human 5-HT2A receptor expressed in HEK-293 EBNA cells; conditions: membranes of transfected HEK-293 EBNA cells, 1.1 nM [3H]-ketanserin, 1 h at RT
Experimental: The ability of the compounds to bind to the 5-HT2A, D3 and D2 receptors was determined using radioligand binding to cloned receptors selectively expressed in HEK-293 EBNA cells.
(§1) HEK-293 EBNA cells were transiently transfected with expression plasmids encoding for the human D2 or D3 dopamine- or for the human 5-HT2A serotonin receptor, respectively. The cells were harvested 48 h post-transfection, washed three times with cold PBS and stored at −80° C. prior to use. The pellet was suspended in cold 50 mM Tris-HCl buffer containing 10 mM EDTA (pH 7.4) and homogenized with a Polytron (Kinematica AG, Basel, Switzerland) for 20-30 sec at 12,000 rpm. After centrifugation at 48,000×g for 30 min at 4° C., the pellet was resuspended in cold 10 mM Tris-HCl buffer containing 0.1 mM EDTA (pH 7.4), homogenized, and centrifuged as above. This pellet was further resuspended in a smaller volume of ice cold 10 mM Tris-HCl buffer containing 0.1 mM EDTA (pH 7.4) and homogenized with a Polytron for 20-30 sec at 12,000 rpm. The protein content of this homogenate was determined with the Bio-Rad (Bradford) Protein Assay (Biorad Laboratories GmbH, München, Germany) according to the instructions of the manufacturer using gamma globulin as the standard. This homogenate was stored at −80° C. in aliquots and thawed immediately prior to use.
Aliquots of membrane preparations were thawed at RT, resuspended in assay buffer (D2, D3: 50 mM Tris-HCl, 120 mM NaCl, 5 mM MgCl2, 1 mM EDTA, 5 mM KCl, 1.5 mM CaCl2, pH=7.4; 5-HT2A: 50 mM Tris-HCl, 10 mM MgCl2, 1 mM EGTA, pH=7.4), homogenized with a Polytron for 20-30 sec at 12,000 rpm and adjusted to a final concentration of approximately 7.5 μg protein/well (D2, D3) and 15 μg protein/well (5-HT2A), respectively.
(§2) The binding affinity (Ki) of the compounds was determined using radioligand binding. Membranes were incubated in a total volume of 200 μl with a fixed concentration of radioligand (final concentration approximately 0.7 nM [^3H]-spiperone for D2, 0.5 nM [^3H]-spiperone for D3, and 1.1 nM [^3H]-ketanserin for 5-HT2A) and ten concentrations of test compound in ranging between 10 μM-0.1 nM for 1 h at RT. At the end of the incubation, the reaction mixtures were filtered on to unifilter 96-well white microplates with bonded GF/C filters (Packard BioScience, Zürich, Switzerland; preincubated for 1 h in 0.1% polyethylenimine (PEI) in assay buffer) with a Filtermate 196 harvester (Packard BioScience) and washed 3 times with cold assay buffer. The nonspecific binding was determined with equally composed reaction mixtures in the presence of 10 μM unlabelled spiperone. Per well 45 μl of Microscint 40 (Perkin Elmer, Schwerzenbach, Switzerland) was added, plates for sealed, shaken for 20 min and counted for 3 min on a Topcount Microplate Scintillation Counter (Canberra Packard SA, Zürich, Switzerland) with quenching correction.
(§3) The CPM value for each duplicate of a concentration of competing compound was averaged (y1), then the % specific binding was calculated according to the equation (((y1−non-specific)/(total binding−non-specific))×100). Graphs were plotted with the % specific binding using XLfit, a curve fitting program that iteratively plots the data using Levenburg Marquardt algorithm. The single site competition analysis equation used was y=A+((B−A)/(1+((x/C)^D))), where y is the % specific binding, A is the minimum y, B is the maximum y, C is the IC50, x is the log10 of the concentration of the competing compound and D is the slope of the curve (the Hill Coefficient). From these curves the IC50 (inhibition concentration at which 50% specific binding of the radioligand was displaced) and Hill coefficient were determined. The affinity constant (Ki) was calculated using the Cheng-Prusoff equation Ki=(IC50/1+([L]/Kd), where [L] is the concentration of radioligand and Kd is the dissociation constant of the radioligand at the receptor as determined by the saturation isotherm.

[2] = molecular target: human D3 dopamine receptor (Homo sapiens (Human), UniProt P35462); assay: Radioligand binding ([3H]-spiperone) to cloned human D3 receptor expressed in HEK-293 EBNA cells; conditions: membranes of transfected HEK-293 EBNA cells, 0.5 nM [3H]-spiperone, 1 h at RT
Chain of human D3 dopamine receptor (P35462 whole entry): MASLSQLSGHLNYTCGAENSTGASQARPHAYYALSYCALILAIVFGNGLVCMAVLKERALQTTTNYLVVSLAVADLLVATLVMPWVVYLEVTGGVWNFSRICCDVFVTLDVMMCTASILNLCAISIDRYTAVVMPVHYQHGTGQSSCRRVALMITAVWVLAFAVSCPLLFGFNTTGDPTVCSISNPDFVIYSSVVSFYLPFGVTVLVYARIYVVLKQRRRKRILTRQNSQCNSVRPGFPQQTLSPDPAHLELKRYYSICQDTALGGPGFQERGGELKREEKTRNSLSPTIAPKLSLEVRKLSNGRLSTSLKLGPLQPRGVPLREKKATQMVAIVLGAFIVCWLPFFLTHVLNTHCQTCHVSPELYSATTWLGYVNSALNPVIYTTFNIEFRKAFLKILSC
Experimental: as §1, with “The pellet was suspended in cold 50 mM Tris-HCl buffer containing 10 mM EDTA (pH 7.4) and homogenized with a Polytron (Kinematica AG, Basel, Switzerland) for 20-30 sec at 12,000 rpm.” left out, “This pellet was further resuspended in a smaller volume of ice cold 10 mM Tris-HCl buffer containing 0.1 mM EDTA (pH 7.4) and homogenized with a Polytron for 20-30 sec at 12,000 rpm.” left out
as §2, §3

`O=C(N[C@H]1CC[C@H](CCN2CCC(c3noc4ccc(F)cc34)CC2)CC1)c1ccc(N2CCOCC2)cc1` [Example 25, N-trans(4-{2-[4-(5-Fluoro-benzo[d]isoxazol-3-yl)-piperidin-1-yl]-ethyl}-cyclohexyl)-4-morpholin-4-yl-benzamide] was tested, and the Ki [1] was 0.0223 µM and the Ki [2] was 0.00904 µM.
`O=C(N[C@H]1CC[C@H](CCN2CCC(c3noc4ccc(F)cc34)CC2)CC1)c1ccc(N2CCCCC2)cc1` [Example 27, N-trans(4-{2-[4-(5-Fluoro-benzo[d]isoxazol-3-yl)-piperidin-1-yl]-ethyl}-cyclohexyl)-4-piperidin-1-yl-benzamide] gave a Ki [1] of 0.007 µM and a Ki [2] of 0.0077 µM.
Work on `CC1CN(c2ccc(C(=O)N[C@H]3CC[C@H](CCN4CCC(c5noc6ccc(F)cc56)CC4)CC3)cc2)CC(C)O1` (stereo partly drawn) [Example 28, 4-(2,6-Dimethyl-morpholin-4-yl)-N-trans (4-{2-[4-(5-fluoro-benzo[d]isoxazol-3-yl)-piperidin-1-yl]-ethyl}-cyclohexyl)-benzamide] yielded a Ki [1] of 0.0991 µM and a Ki [2] of 0.0858 µM.
Compound `O=C(N[C@H]1CC[C@H](CCN2CCC(c3noc4ccc(F)cc34)CC2)CC1)c1ccc(N2CCS(=O)(=O)CC2)cc1` [Example 29, 4-(1,1-Dioxo-1,6,4-thiomorpholin-4-yl)-N trans-(4-{2-[4-(5-fluoro-benzo[d]isoxazol-3-yl)-piperidin-1-yl]-ethyl}-cyclohexyl)-benzamide] has a Ki [1] of 0.0124 µM and a Ki [2] of 0.00594 µM.
`COCCC(=O)N[C@H]1CC[C@H](CCN2CCC(c3noc4cc(Cl)ccc34)CC2)CC1` [Example 32, N-trans(4-{2-[4-(6-Chloro-benzo[d]isoxazol-3-yl)-piperidin-1-yl]-ethyl}-cyclohexyl)-3-methoxy-propionamide] gave a Ki [1] of 0.0165 µM and a Ki [2] of 0.0085 µM.
With `O=C(N[C@H]1CC[C@H](CCN2CCC(c3noc4cc(Cl)ccc34)CC2)CC1)C(O)C(F)(F)F` (stereo partly drawn) [Example 33, N-trans-(4-{2-[4-(6-Chloro-benzo[d]isoxazol-3-yl)-piperidin-1-yl]-ethyl}-cyclohexyl)-3,3,3-trifluoro-2-hydroxy-propionamide] the Ki [1] was 0.0219 µM and the Ki [2] was 0.011 µM.
Work on `O=C(CC1CCC2(CC1)OCCO2)N[C@H]1CC[C@H](CCN2CCC(c3noc4cc(Cl)ccc34)CC2)CC1` [Example 36, N-trans (4-{2-[4-(6-Chloro-benzo[d]isoxazol-3-yl)-piperidin-1-yl]-ethyl}-cyclohexyl)-2-(1,4-dioxa-spiro[4.5]dec-8-yl)-acetamide] yielded a Ki [1] of 0.00831 µM and a Ki [2] of 0.0122 µM.
For `COC(CC(=O)N[C@H]1CC[C@H](CCN2CCC(c3noc4cc(Cl)ccc34)CC2)CC1)OC` [Example 37, N-trans-(4-{2-[4-(6-Chloro-benzo[d]isoxazol-3-yl)-piperidin-1-yl]-ethyl}-cyclohexyl)-3,3-dimethoxy-propionamide], the Ki [1] was 0.0137 µM and the Ki [2] was 0.00903 µM.
`O=C(CC1CCCO1)N[C@H]1CC[C@H](CCN2CCC(c3noc4cc(Cl)ccc34)CC2)CC1` (stereo partly drawn) [Example 38, N-trans-(4-{2-[4-(6-Chloro-benzo[d]isoxazol-3-yl)-piperidin-1-yl]-ethyl}-cyclohexyl)-2-(tetrahydro-furan-2-yl)-acetamide] showed a Ki [1] of 0.013 µM and a Ki [2] of 0.009 µM.
Compound `C[C@@H](O)CC(=O)N[C@H]1CC[C@H](CCN2CCC(c3noc4cc(Cl)ccc34)CC2)CC1` [Example 39, (R)-N-trans (4-{2-[4-(6-Chloro-benzo[d]isoxazol-3-yl)-piperidin-1-yl]-ethyl}-cyclohexyl)-3-hydroxy-butyramide] has a Ki [1] of 0.013 µM and a Ki [2] of 0.017 µM.
Compound `CC1(C)OC[C@H](CC(=O)N[C@H]2CC[C@H](CCN3CCC(c4noc5cc(Cl)ccc45)CC3)CC2)O1` [Example 40, N-trans (4-{2-[4-(6-Chloro-benzo[d]isoxazol-3-yl)-piperidin-1-yl]-ethyl}-cyclohexyl)-2-((S)-2,2-dimethyl-[1,3]dioxolan-4-yl)-acetamide] has a Ki [1] of 0.025 µM and a Ki [2] of 0.006 µM.
In the case of `CO[C@H]1CC[C@H](CC(=O)N[C@H]2CC[C@H](CCN3CCC(c4noc5cc(Cl)ccc45)CC3)CC2)C1` [Example 41, N-trans (4-{2-[4-(6-Chloro-benzo[d]isoxazol-3-yl)-piperidin-1-yl]-ethyl}-cyclohexyl)-2-((1S,3S)-3-methoxy-cyclopentyl)-acetamide], the Ki [1] is reported as 0.014 µM and the Ki [2] is reported as 0.01 µM.
`COC1(C)CCC(CC(=O)N[C@H]2CC[C@H](CCN3CCC(c4noc5cc(Cl)ccc45)CC3)CC2)CC1` (stereo partly drawn) [Example 42, N-trans(4-{2-[4-(6-Chloro-benzo[d]isoxazol-3-yl)-piperidin-1-yl]-ethyl}-cyclohexyl)-2-(4-methoxy-4-methyl-cyclohexyl)-acetamide] gave a Ki [1] of 0.019 µM and a Ki [2] of 0.008 µM.
`CO[C@]1(C)CC[C@@H](CC(=O)N[C@H]2CC[C@H](CCN3CCC(c4noc5cc(Cl)ccc45)CC3)CC2)CC1` [Example 42A, N-trans(4-{2-[4-(6-Chloro-benzo[d]isoxazol-3-yl)-piperidin-1-yl]-ethyl}-cyclohexyl)-2-(4-trans-methoxy-4-methyl-cyclohexyl)-acetamide] showed a Ki [1] of 0.016 µM and a Ki [2] of 0.006 µM.
In the case of `CO[C@]1(C)CC[C@H](CC(=O)N[C@H]2CC[C@H](CCN3CCC(c4noc5cc(Cl)ccc45)CC3)CC2)CC1` [Example 42B, N-trans(4-{2-[4-(6-Chloro-benzo[d]isoxazol-3-yl)-piperidin-1-yl]-ethyl}-cyclohexyl)-2-(4-cis-methoxy-4-methyl-cyclohexyl)-acetamide], the Ki [1] is reported as 0.014 µM and the Ki [2] is reported as 0.004 µM.
Work on `COC(C)CC(=O)N[C@H]1CC[C@H](CCN2CCC(c3noc4cc(Cl)ccc34)CC2)CC1` (stereo partly drawn) [Example 43, N-trans(4-{2-[4-(6-Chloro-benzo[d]isoxazol-3-yl)-piperidin-1-yl]-ethyl}-cyclohexyl)-3-methoxy-butyramide] yielded a Ki [1] of 0.013 µM and a Ki [2] of 0.01 µM.
For `CO[C@H](C)CC(=O)N[C@H]1CC[C@H](CCN2CCC(c3noc4cc(Cl)ccc34)CC2)CC1` [Example 43A, (R)—N-trans(4-{2-[4-(6-Chloro-benzo[d]isoxazol-3-yl)-piperidin-1-yl]-ethyl}-cyclohexyl)-3-methoxy-butyramide], the Ki [1] was 0.016 µM and the Ki [2] was 0.015 µM.
`CO[C@@H](C)CC(=O)N[C@H]1CC[C@H](CCN2CCC(c3noc4cc(Cl)ccc34)CC2)CC1` [Example 43B, (S)—N-(4-{2-[4-(6-Chloro-benzo[d]isoxazol-3-yl)-piperidin-1-yl]-ethyl}-cyclohexyl)-3-methoxy-butyramide] gave a Ki [1] of 0.016 µM and a Ki [2] of 0.006 µM.
Compound `COC[C@H]1CC[C@H](CC(=O)N[C@H]2CC[C@H](CCN3CCC(c4noc5cc(Cl)ccc45)CC3)CC2)CC1` [Example 44, N-trans-(4-{2-[4-(6-Chloro-benzo[d]isoxazol-3-yl)-piperidin-1-yl]-ethyl}-cyclohexyl)-2-trans (4-methoxymethyl-cyclohexyl)-acetamide] has a Ki [1] of 0.019 µM and a Ki [2] of 0.009 µM.
